Experimental data as given in patent publication US4639468A, “Derivatives of glycinamide, their preparation and their use” (priority 1979, dated 1987).
Read-outs that look alike come from different tables or passages of the source.

Legend:
[1] = tested on: convulsions induced by bicuculline; assay: in vivo; details: for bicuculline (score: sum of animals protected by dosages of 10 and 100 mgr/kg): oral, 5 mice each, 3 hours before bicuculline 0.6 mgr/kg i.v., tonic convulsions; for ED50: Mus musculus, iv, 3 h, read-out: DE50
Method: (§1) The anticonvulsive effect was examined for tonic convulsions induced by bicuculline. The compounds of the invention were administrated orally at dosages of 10 and 100 mgr/kg, each to 5 mice, 3 hours before intravenous injection of bicuculline at the dosage of 0.6 mgr/kg. The number of mice protected against tonic convulsions and the number of dead mice were noted.
(§2) Amongst the substances according to the invention, 2-n-pentylaminoacetamideand its hydrochloride were more particularly studied. […] The hydrochloride was also administered intravenously. […] Table III also gives the therapeutical index (LD50/ED50).

in vivo [2] = details: mouse, in vivo, po, read-out: DL50 (the source's name)
mortality caused by KCN = assay: protection of mice against mortality caused by KCN; assay type: in vivo, mouse
platelet agglutination = assay: inhibition of platelet agglutination in human plasma (turbidimetric method of Born and Cross, Trombofax); assay type: cell-based; details: human plasma rich in platelets, preincubated 3 minutes before Trombofax
Method: The measure of the inhibition of platelet agglutination is made according to the turbidimetric method of G. V. R. Born and M. J. Cross (J. Physiol. 168, 178, […]). The plasma rich in platelets is preincubated for 3 minutes before introduction of the inductor agent, Trombofax. The inhibion of the maximum amplitude of agglutination is measured by means of Upchurch agglutometer. In this test, compounds 1, 11, 14 and 18 have shown as being active.

mice = assay: in vivo; details: oral, mice; Table II
in vivo [3] = details: mouse, in vivo, po
Method: as §1, §2

[4] = tested on: decarboxylase glutamate (GAD); assay: activity of decarboxylase glutamate (GAD) in homogenizates of rat brain; assay type: biochemical; details: 10^-4 M
Method: The substances of the invention have the property of inhibiting convulsions induced by bicculline in mouse. […] As a matter of fact, bucuculline is a specific antoganist of GABA. Besides, the effect of the products on the activity of the GABA synthesis enzyme, decarboxylase glutamate (GAD), was studied. The activity of the GAD was determined in homogenizates of rat brain according to the method described by L. Parker (Methods in Enzymology, Ed. S. Fleischer, 1974, Vol. XXXII, part V., p. 779). […] In general, the products of the invention […] the activity of the […] (GABA-T), enzyme of GABA catabolism, which results in an increase of the GABA levels at the level of GABA-ergic neurons.

[5] = tested on: convulsions induced by strychnine; assay: convulsions induced by strychnine; details: in vivo

Row | Structure (SMILES) | bicuculline (score: sum of animals protected by dosages of 10 and 100 mgr/kg) [1] | LD50 (in vivo [2]; mice, Table II) [mg/kg] | other results
1 | CCCCCCNCC(=O)Nc1cccc(Cl)c1 [Compound 53] | 4 |  | 
2 | NC(=O)CNCCC(c1ccccc1)c1ccccc1 [Compound 56] | 4 |  | 
3 | CCCCCCCNCC(N)=O [Compound 9, 2-n-Heptylaminoacetamide] | 5 | 1420 | protection against mortality caused by KCN (mortality caused by KCN): protect mice against mortality caused by KCN
4 | CCCCCCNCC(=O)N(C)C [Compound 54] | 4 |  | 
5 | CCCCCCN(CC)CC(N)=O [Compound 28] | 5 | 435 | 
6 | NC(=O)CNCCOc1ccccc1 [Compound 57] | 5 |  | 
7 | CCOC(=O)CCCCCCCNCC(N)=O [Compound 16] | 5 | > 1000 | 
8 | CCCCCCCCCCNCC(N)=O [Compound 14, 2-n-decylaminoacetamide] | 6 | 2600 | inhibition of platelet agglutination (platelet agglutination): active
9 | CCCCCNC(C)C(N)=O (stereo not drawn) [Compound 41] | 4 |  | 
10 | COC(=O)CCCCCN(CC(N)=O)CC(N)=O [Compound 6, Methyl 6-(dicarboxamidomethyl)aminohexanoate] | 6 | > 3000 | 
11 | CCCCCCNCC(N)=O [Compound 12, 2-n-hexylaminoacetamide] | 5 |  | DL50 (mice): 2800 mg/kg
12 | NC(=O)CN(CCCCCCO)CC(N)=O [Compound 5] | 2 | > 3000 | 
13 | CCCCCCNCC(N)=O [Compound 27] | 4 |  | DL50 (mice): 860 mg/kg
14 | CCC1(c2ccccc2)C(=O)NC(=O)NC1=O [Na Phenobarbital, reference compound] |  |  | selectivity ratio (in vivo [3]): 88; ED50 [1]: 2.11 mg/kg; LD50 (in vivo [2]; Table III): 185 mg/kg
15 | NC(=O)CNCCCCO [Compound 7] | 2 |  | 
16 | C=CCCCCCCNCC(N)=O [Compound 50] | 6 |  | 
17 | CCCCCCNCC(N)=O [Compound 2, 2-n-hexylaminoacetamide] | 4 |  | DL50 (mice): 780 mg/kg
18 | O=C1NC(=O)C(c2ccccc2)(c2ccccc2)N1 [Na Diphenylhydantoin, reference compound] |  |  | ED50 [1]: 2.63 mg/kg
19 | CCCCCCNCC(=O)NC [Compound 38] | 3 |  | 
20 | CCCCCCN(CC(N)=O)C(=O)c1ccccc1 [Compound 25] | 5 | 3660 | 
21 | NC(=O)CNCCCCCCO [Compound 4] | 4 | > 3000 | 
22 | CCCCCCCCC=CCCCCCCCCNCC(N)=O [Compound 17, 2-n-octadecen-9-ylaminoacetamide] | 2 | > 3000 | 
23 | CCCCCCNCC(N)=O [Compound 31] | 6 |  | DL50 (mice): 1650 mg/kg
24 | C#CC(C)(C)NCC(N)=O [Compound 42, 2-(1,1-dimethylpropyn-2-yl)aminoacetamide] | 6 |  | 

Row | Structure (SMILES) | bicuculline (score: sum of animals protected by dosages of 10 and 100 mgr/kg) [1] | LD50 (in vivo [2]; mice, Table II) [mg/kg] | other results
25 | CCCCCCN(CC(N)=O)C(=O)OCC [Compound 47, Ethyl N-n-hexyl-N-carboxamidomethylcarbamate] | 8 |  | 
26 | COC(=O)CCCCCNCC(N)=O [Compound 8] | 1 | > 3000 | effect on the activity of GAD [4]: particularly remarkable
27 | CCCC(CCC)C(=O)O [Na Valproate, reference compound] |  |  | selectivity ratio (in vivo [3]): 14; ED50 [1]: 89.1 mg/kg; LD50 (in vivo [2]; Table III): 1250 mg/kg; activity against convulsions induced by strychnine [5]: inactive
28 | CCCCCCN(C)CC(N)=O [Compound 30, 2-(N-n-hexyl-N-methylamino)acetamide] | 4 | 570 | 
29 | CCCCCCNCC(=O)NCCCCCC [Compound 37, N-n-hexyl-2-(n-hexylamino)acetamide] | 3 |  | 
30 | CCCCCNCC(N)=O [Compound 35] | 3 |  | DL50 (mice): > 3000 mg/kg
31 | CCCCCCN(CC(N)=O)C(=O)C(C)(C)C [Compound 45] | 3 |  | 
32 | CCCCCNCC(N)=O [Compound 20] | 1 |  | DL50 (mice): > 1000 mg/kg
33 | NC(=O)CNCCCc1ccccc1 [Compound 49, 2-(3-phenylpropyl)aminoacetamide] | 7 |  | 
34 | CCCCCCCCCCCCCCCCCCNCC(N)=O [Compound 10, 2-n-octadecylaminoacetamide] | 1 | > 3000 | 
35 | NC(=O)CNCCCCc1ccccc1 [Compound 52, 2-(4-phenylbutyl)aminoacetamide] | 7 |  | 
36 | CCCCCNC(CC)C(N)=O (stereo not drawn) [Compound 48, 2-(n-pentylamino)-butyramide] | 6 |  | 
37 | CCCCCNCC(N)=O [Compound 34] | 5 |  | DL50 (mice): > 3000 mg/kg
38 | NC(=O)CNCCCCCCCC(=O)O [Compound 51, 8-carboxamidomethylaminooctanoic acid] | 6 |  | 
39 | CCCCCNC(C(N)=O)c1ccccc1 (stereo not drawn) [Compound 46] | 5 |  | 
40 | NC(=O)CNCCc1ccccc1 [Compound 36, 2-(2-phenylethyl)aminocacetamide] | 7 |  | 
41 | C=CCCCCCNCC(N)=O [Compound 40] | 4 |  | 
42 | COC(=O)CCCCCCCNC(C(N)=O)C(N)=O [Compound 23, Methyl 8-(dicarboxamidomethyl)aminooctanoate] | 7 |  | DL50 (mice): > 1000 mg/kg
43 | CCCCCNCC(N)=O [Compound 26] | 3 |  | DL50 (mice): 1950 mg/kg
44 | CCCCCCCCCNCC(N)=O [Compound 11] | 2 | 1950 | inhibition of platelet agglutination (platelet agglutination): active
45 | CCCCCCCCCCCCNCC(N)=O [Compound 13, 2-n-docecylaminoacetamide] | 2 | > 3000 | 
46 | CCCCCCCC(C)NCC(N)=O (stereo not drawn) [Compound 18] | 2 | > 1000 | inhibition of platelet agglutination (platelet agglutination): active
47 | CCCCNC(=O)C(C(C)C)N(CCCCOc1ccccc1)C(C)=O (stereo not drawn) [Compound 55, N-n-butyl-2-[N-acetyl-N-(4-phenoxybutyl)]aminoisovaleramide] | 6 |  | 
